Test results as given in patent US20040110693A1, “Agent for treating diabetes mellitus” (priority 2001, published 2004).
Values joined by “and” are separate entries in the source; they are usually repeats but may differ in a detail not shown here. Equal entries are not always repeated.

Experiments:
[1] = tested on: type II diabetics; test: Short-term experiments with alpha-glucosidase inhibitors and bulk materials: blood sugar increase after test breakfast; settings: for action compared with bulk material: levelling of blood sugar increase after eating; for Hypoglycemia, MG 100, mean value: mean of 6 cases
Experimental: After measurement of the fasting blood sugar in the morning, 20 type II diabetics received a test breakfast (75 g of white bread, 20 g of butter, 40 g of jam or, as a sugar-free variant, 75 g of white bread, 20 g of butter and 40 g of cheese). On the control days, before the test breakfast 75 ml of yoghurt were given, and on the test days the various bulk materials were given in 75 ml of yoghurt. […] After the test breakfast, the blood sugar values were measured at ½ to 1 hour intervals for 2-4 hours. Each short-term experiment was carried out two to three times with the individual subjects. The respective average values are indicated.
The basis for the evaluation is the graphic representation of the blood sugar values as curves. The increasing phase of the blood sugar lasting 1-2 hours is determined planimetrically and considered as a measure of the lower limit of glucose absorption. In the first hour after the test breakfast, under physical quasi-resting conditions the increase in the blood sugar curve ought to reflect the intestinal glucose absorption into the blood almost unadulteratedly on the morning of the experiment in the diabetic differently from in the healthy person. Beyond the first hour, even in most type II diabetics an insulin response commences more or less clearly which levels off the blood sugar increase, or conversely in any case leads to a corresponding underestimation of the glucose absorption. […] The planimetric evaluation of all curves is then extended until achieving the peak of the last curve. […] For practical reasons, we compare the increasing phases of the blood sugar curves under the various experimental conditions (control, after bulk material, in the later experiments also after alpha-glucosidase inhibitors) with one another and calculate from this the degree of hypoglycemia based on the control curve. […] The statistical evaluation, which is possible only in the short-term experiments on account of the amounts of data, is carried out using the student's t test in a paired comparison.
21 patients were investigated: 10 each received acarbose and miglitol, 1 patient first acarbose and then miglitol. The individual dose used was 25-100 mg.
Immediately before the test meals described above, the subjects received either a) 75 ml of yoghurt (control experiment) or b) bulk material in yoghurt (bulk curve) or c) a tablet of acarbose or miglitol and then 75 ml of yoghurt (alpha-GI curve) or d) this medicament 5 minutes before taking bulk material in yoghurt (bulk-plus alpha-GI curve). As described, the blood sugar values were determined before and for 3 hours after the test meal.

[2] = tested on: normal persons; test: Side effects in normal persons after 50-75 g of sucrose instead of test breakfast; type: in vivo, human; settings: 100 mg
[3] = 50 mg on its own (acarbose 2 cases, miglitol 8 cases)

Row | concomitant symptoms [1, 3] | concomitant symptoms ([1]; 25 mg on its own (5 cases)) | patients with semiliquid stools as far as diarrhea ([1]; on its own, short-term experiments) | SMILES | Hypoglycemia (decrease in the blood sugar increase after a test breakfast), Alpha-GI ([1]; AB 50 mg, individual patient) | Hypoglycemia (decrease in the blood sugar increase after a test breakfast), Alpha-GI ([1]; AB 100 mg, individual patient) | action compared with bulk material [1] | symptoms after 50-75 g of sucrose [2] | Hypoglycemia (decrease in the blood sugar increase after a test breakfast), Alpha-GI ([1]; MG 25 mg, individual patient) | Hypoglycemia (decrease in the blood sugar increase after a test breakfast), Alpha-GI ([1]; MG 50 mg, individual patient) | Hypoglycemia (decrease in the blood sugar increase after a test breakfast), Alpha-GI ([1]; MG 100 mg, individual patient) | Hypoglycemia, MG 100 ([1]; miglitol 100 mg on its own, individual patient) | Hypoglycemia, MG 100, mean value ([1]; miglitol 100 mg on its own) [%] | Hypoglycemia, MG 100, mean value ([1]; miglitol 100 mg on its own, listed as miglitol) [%]
1 | no clear concomitant symptoms | – | – | CC1OC(OC2C(CO)OC(OC3C(CO)OC(O)C(O)C3O)C(O)C2O)C(O)C(O)C1NC1C=C(CO)[C@@H](O)[C@H](O)[C@H]1O (stereo partly shown) [AB, acarbose] | 42% and 50% | 41% and 63% (2×) and 56% and 65% and 6% and 55% and 39% and 58% and 59% | considerably stronger action than bulk material | abdominal pain and diarrhea occurred | – | – | – | – | – | –
2 | no clear concomitant symptoms | no clear concomitant symptoms | 4 of 9 patients | OCCN1C[C@H](O)[C@@H](O)[C@H](O)[C@H]1CO [MG, miglitol] | – | – | considerably stronger action than bulk material | abdominal pain and diarrhea occurred | 27% and 47% and 12% and 53% and 49% and 24% | 33% and 40% and 37% and 62% (2×) and 25% and 59% and 71% | 24% and 60% and 80% and 59% and 32% and 66% and 75% and 34% and 73% | 66% and 75% and 34% and 80% and 59% and 32% | 57.7 | 58
